Results reported in ChEMBL document CHEMBL1201862, “PubChem BioAssay data set” (2004).
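All cell lines were grown in 96-well plates and treated with compound for 48 hours. GI50 is the concentration that inhibits growth by half.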 The source made the active and inactive calls. No stated cut-off is given here; in the data, active = GI50 up to about 1.1 µM and inactive = higher.

How the values were obtained:
Experiment in all cases: NCI-60 cell line screen, 48 h
[1] = tested on: M14
[2] = tested on: HT-29
[3] = tested on: K562
[4] = tested on: HOP-92
[5] = tested on: SNB-75
[6] = tested on: SF-295
[7] = tested on: MOLT-4
[8] = tested on: U-251
[9] = tested on: 786-0
[10] = tested on: SF-539
[11] = tested on: HOP-62
[12] = tested on: NCI-H23
[13] = tested on: SN12C
[14] = tested on: OVCAR-8
[15] = tested on: SK-MEL-28
[16] = tested on: OVCAR-5
[17] = tested on: UO-31
[18] = tested on: Malme-3M
[19] = tested on: IGROV-1
[20] = tested on: RPMI-8226

Measured: GI50

NC(=O)C(c1ccccc1)N1OC2C(=O)N(c3cccc4ccccc34)C(=O)C2C1c1c2ccccc2c(Cl)c2ccccc12 (stereo unspecified)
inactive: [1] 7.03 µM | [2] 7.53 µM | [3] 8.15 µM | [4] 9.27 µM | [5] 8.97 µM | [6] 9.75 µM | [7] 1.44 µM | [8] 7.57 µM | [9] 10.2 µM | [10] 5.24 µM | [11] 11 µM | [12] 9.2 µM | [13] 8.47 µM | [14] 9.29 µM | [15] 12.8 µM | [16] 9.66 µM | [17] 12 µM | [18] 11.6 µM | [19] 11.7 µM

O=C(NCCN(CCNC(=O)c1cccc(O)c1O)CCNC(=O)c1cccc(O)c1O)c1cccc(O)c1O [TRENCAM]
inactive: [1] 5.55 µM | [2] 5.31 µM | [3] 5.28 µM | [4] 7.53 µM | [5] 22.2 µM | [6] 25.4 µM | [8] 6.49 µM | [9] 5.89 µM | [10] 3.85 µM | [11] 6.59 µM | [12] 11.5 µM | [13] 8.55 µM | [14] 3.15 µM | [15] 3.82 µM | [16] 66.2 µM | [17] 14.9 µM | [18] 2.51 µM | [19] 4.73 µM

CCc1nnc(CC)n1-n1c(Cc2ccccc2)n[nH]c1=O
inactive: [1] > 100 µM | [2] > 100 µM | [3] > 100 µM | [20] > 100 µM | [4] > 100 µM | [5] > 100 µM | [6] > 100 µM | [7] > 100 µM | [8] > 100 µM | [9] > 100 µM | [10] > 100 µM | [11] > 100 µM | [12] > 100 µM | [13] > 100 µM | [14] > 100 µM | [15] > 100 µM | [16] > 100 µM | [17] > 100 µM | [19] > 100 µM

CC1CCC2C(C)C(=O)OC2C2(C)C(=O)C=CC12 (stereo unspecified)
inactive: [1] > 10 µM | [2] > 10 µM | [3] 4.57 µM | [20] 8.47 µM | [4] > 10 µM | [5] > 10 µM | [6] > 10 µM | [7] 6.59 µM | [8] > 10 µM | [9] > 10 µM | [10] > 10 µM | [11] > 10 µM | [12] > 10 µM | [13] > 10 µM | [14] > 10 µM | [15] > 10 µM | [16] > 10 µM | [17] > 10 µM | [19] > 10 µM

Cn1c(=O)oc2cc(C3CCC(=O)N3Cc3ccc(Cl)cc3)ccc21 (stereo unspecified)
inactive: [1] > 100 µM | [2] > 100 µM | [3] > 100 µM | [20] > 100 µM | [5] 47.9 µM | [6] > 100 µM | [7] > 100 µM | [8] > 100 µM | [9] > 100 µM | [10] > 100 µM | [11] > 100 µM | [12] > 100 µM | [13] > 100 µM | [14] > 100 µM | [15] > 100 µM | [16] > 100 µM | [17] > 100 µM | [18] > 100 µM | [19] > 100 µM

CN(C)C(=O)OC(Cn1cncn1)(Cn1cncn1)c1ccc(Cl)cc1Cl
inactive: [1] > 100 µM | [2] > 100 µM | [3] > 100 µM | [20] > 100 µM | [4] > 100 µM | [5] > 100 µM | [6] > 100 µM | [7] > 100 µM | [8] > 100 µM | [9] > 100 µM | [10] > 100 µM | [11] > 100 µM | [14] > 100 µM | [15] > 100 µM | [16] > 100 µM | [17] > 100 µM | [19] > 100 µM

C[N+](C)(C)CC1CCC/C1=N\OC(=O)c1ccccc1 (stereo unspecified)
inactive: [1] > 100 µM | [2] > 100 µM | [3] > 100 µM | [20] > 100 µM | [5] > 100 µM | [6] > 100 µM | [7] > 100 µM | [8] > 100 µM | [9] > 100 µM | [10] > 100 µM | [11] > 100 µM | [12] > 100 µM | [13] > 100 µM | [14] > 100 µM | [15] > 100 µM | [17] > 100 µM | [18] > 100 µM | [19] > 100 µM

[N-]=[N+]=N[C@H]1C[C@@H](CO)O[C@H]1n1cnc2c(N)ncnc21
inactive: [1] > 100 µM | [2] > 100 µM | [4] > 100 µM | [5] > 100 µM | [6] > 100 µM | [8] > 100 µM | [9] > 100 µM | [10] > 100 µM | [11] > 100 µM | [12] > 100 µM | [13] > 100 µM | [14] > 100 µM | [15] > 100 µM | [16] > 100 µM | [17] > 100 µM | [18] > 100 µM

CC(C)=CCc1cc2c(cc1O)OC[C@H]1c3cc4c(cc3O[C@@H]21)OCO4
inactive: [1] 62.1 µM | [2] > 100 µM | [3] 36.7 µM | [4] 23 µM | [5] 78.7 µM | [6] > 100 µM | [7] 22.1 µM | [8] 37.5 µM | [9] 42.1 µM | [10] 36.7 µM | [11] 91.6 µM | [12] 33.2 µM | [13] > 10 µM | [14] > 100 µM | [15] 83.4 µM | [16] 61.7 µM | [17] 31.6 µM | [19] > 100 µM

O=C(Cc1nc2ccccc2c(=O)n1-c1c(Cl)cccc1Cl)c1ccncc1
inactive: [1] 30.6 µM | [2] 19.6 µM | [3] 26.7 µM | [4] 13.8 µM | [5] 25.1 µM | [6] 18 µM | [7] 19 µM | [8] 29.6 µM | [9] 24.6 µM | [10] 18.4 µM | [11] 21.3 µM | [12] 36.8 µM | [13] 85.9 µM | [14] 29.7 µM | [15] 21.1 µM | [17] 13.3 µM | [18] 24.7 µM | [19] 22.4 µM

CC12Oc3ccc4ccccc4c3C1c1c(ccc3ccccc13)O2 (stereo unspecified)
inactive: [1] > 100 µM | [2] > 100 µM | [3] > 100 µM | [4] 17.1 µM | [5] 43.3 µM | [6] 58.6 µM | [7] > 100 µM | [8] > 100 µM | [9] > 100 µM | [10] 78.2 µM | [12] > 100 µM | [13] > 100 µM | [14] > 100 µM | [15] > 100 µM | [16] > 100 µM | [17] > 100 µM | [18] > 100 µM | [19] > 100 µM

Cc1cc(C)nc(NS(=O)(=O)c2ccc(Nc3c4ccc(Cl)cc4nc4c(C(=O)Nc5ccc(S(=O)(=O)N=C(N)N)cc5)cccc34)cc2)n1
inactive: [1] > 100 µM | [2] > 100 µM | [3] 73.5 µM | [20] 45.4 µM | [5] 57.7 µM | [6] > 100 µM | [7] 29 µM | [8] 87.5 µM | [9] > 100 µM | [10] > 100 µM | [11] > 100 µM | [12] > 100 µM | [13] > 100 µM | [14] > 100 µM | [15] 77.6 µM | [16] > 100 µM | [17] > 100 µM | [18] 78.7 µM

C/C(=C1/N=C(c2cc([N+](=O)[O-])ccc2Cl)N(c2cccc(C)c2)C1=O)c1cc2ccccc2oc1=O
inactive: [1] > 100 µM | [2] 58.5 µM | [3] 33.7 µM | [20] 20.4 µM | [4] 76.2 µM | [5] > 100 µM | [6] > 100 µM | [7] 21.3 µM | [9] > 100 µM | [11] > 100 µM | [12] 35.2 µM | [13] > 100 µM | [14] > 100 µM | [15] > 100 µM | [16] > 100 µM | [17] > 100 µM | [18] > 100 µM | [19] 45.1 µM

CC(N)(Cc1c[nH]c2ccccc12)C(=O)O (stereo unspecified)
inactive: [1] > 100 µM | [2] > 100 µM | [3] > 100 µM | [20] > 100 µM | [5] > 100 µM | [6] > 100 µM | [7] > 100 µM | [8] > 100 µM | [9] > 100 µM | [10] > 100 µM | [11] > 100 µM | [12] > 100 µM | [13] > 100 µM | [14] > 100 µM | [15] > 100 µM | [16] > 100 µM | [17] > 100 µM | [18] > 100 µM | [19] > 100 µM

COc1cc2c(cc1OC)NC(=O)NC(Cc1ccc3c(c1)OCO3)CC2 (stereo unspecified)
inactive: [1] > 100 µM | [3] > 100 µM | [20] 83.9 µM | [4] 30.2 µM | [5] 24 µM | [6] 84.5 µM | [7] > 100 µM | [9] > 100 µM | [11] 51.5 µM | [12] > 100 µM | [13] > 100 µM | [14] > 100 µM | [15] > 100 µM | [16] > 100 µM | [17] 76.9 µM | [18] > 100 µM | [19] > 100 µM
